The target in one data set is T1, mouse D1R (Mus musculus, UniProt Q61616).
T1 construct: human SK-N-MC and mouse CAD neuroblastoma cell lines; endogenous in cells; host or cells: mouse CAD neuroblastoma cell line
The experiment in a line: potentiator-mode cAMP assay in mouse CAD neuroblastoma cell line. The format is cell-based. Particulars: mouse CAD neuroblastoma cells. As for the experimental part: In order to ascertain if this allosteric potentiation was due to a modulation on DA affinity, radioligand binding assays in the presence of DA IC50 (4 μM) were carried out.
Compound 26 was tested in the potentiator-mode cAMP assay at different fixed concentrations (1, 5, and 10 μM). […] Therefore, it should have negligible direct activating effects on the human D1R in the absence of the endogenous ligand.
Figure 3 (A) Concentration–response curves in human D1R for cAMP production of DA alone (black) and in the presence of different concentrations of compound 26. (B) Concentration–response curves in human D1R of DA (black), 10 μM 26 for 10 min (red), and 10 μM 26 for 10 min then washing with assay buffer (blue). (C) Concentration–response curves in mouse D1R of DA alone (black) and in the presence of 10 μM 26 (red). (D) Concentration–response curve in human D1R of compound 26 in the presence of DA EC70 concentration. (E) Concentration–response curves in human D1R of DA (black) and compound 26 (red). (F) Concentration–response curves in human D1R of DA (red), after preincubation for 1 h with 10 μM DA (black), with 10 μM 26 (green), and with both 10 μM DA and 10 μM 26 (blue).

Another data set deals with T2, human D3R (Homo sapiens, UniProt P35462).
T2 construct: host or cells: cells supplied with the PatHunter Beta-arrestin eXpress GPCR assay kit
The experiment in a line: PatHunter beta-arrestin assay at human D3R. The format is cell-based. Particulars: 10 μM compound. As for the experimental part: Functional studies at both human D3 and D4 receptors were carried out in human D3 and D4 receptors, using a PatHunter Beta-arrestin eXpress GPCR assay kit from DiscoverX. Briefly, cells were plated and maintained for 48 h at 37 °C in a 5% CO2 atmosphere in cell plating reagent provided in the kit. After this time, test compounds were added to the cells and incubated for 30 min at 37 °C. Dopamine was added to the cells and incubated for an additional 90 min at 37 °C. Cells were then treated with the working detection solution provided with the kit for 1 h and beta-arrestin translocation was measured by luminescence detection (integration time = 500 ms) in a Tecan M1000 Genius Pro reader. Data were normalized to dopamine maximum effect and fitted to a 4-parameter logistic equation using Prism v2.1 software (GraphPad Inc).

The target of data set [1] is T3, human serum albumin (HSA) (Homo sapiens, UniProt P02768).
T3 construct: purchased Sovicell TMP-0210-2096
Kind of data set: HSA binding assay (TRANSIL XL). The format is in vitro ADME. Particulars: for HSA binding (%): at a concentration of 5 μM. The method, then:
HSA binding assay. The assessment of compounds binding to HSA was performed by incubating a fixed concentration of the compound with different concentrations of immobilized HSA, using the TRANSILXL HSA Binding Kit (TMP-0210- 2096, Sovicell). An 8-well unit of the TRANSIL assay plate was used for each compound : six wells contain increasing concentrations of HSA immobilized on silica beads suspended in PBS at pH 7.4, and two wells contain buffer only and serve as references to account for nonspecific binding. The TRANSIL assay plate was thawed for 3 h at rt and centrifuged at 750g for 5 s. Then, 15 μ L of an 80 μ M stock solution of the compound in PBS (for a final concentration of 5 μ M) were added to each well of the 8-well unit, and the plate was incubated on a plate shaker at 1000 rpm for 12 min at rt. After this time, the plate was centrifuged at 750gfor 10 min, and 50 μL of the supernatants were transferred for analytical quantification by HPLC-MS using selected ion monitoring (SIM). The binding percentage was calculated from the remaining free compound concentration in the supernatant of each well, using the spreadsheet and algorithms supplied with the kit.
Stability in mouse serum. Stability for selected compounds and reference compound enalapril was assayed by adding 625 μL of a 250 μM solution of test compound in PBS pH 7.4 to 1.875 mL of mouse serum (Europa Bioproducts, EQSM-0100) pre-warmed a t 37 °C. Next, solutions were incubated at 37 °C for 4 h, taking aliquots of 250 μL at t = 0, 1, 2, 3, and 4 h. Each aliquot was quenched in 375 μL of cold ACN, vortexed, incubated for 10 min in ice and centrifuged at 39000g for 10 min. Supernatants were then analyzed by HPLC-MS using SIM mode, and quantification was estimated by using the peak area integration normalized with an internal standard.
Stability assay in mouse liver homogenate. Stability of test compounds and reference compound propranolol was determined by incubation in liver homogenates following previously reported procedure. […]

The structures appear in SMILES notation.

T3 sequence (P02768 25-609): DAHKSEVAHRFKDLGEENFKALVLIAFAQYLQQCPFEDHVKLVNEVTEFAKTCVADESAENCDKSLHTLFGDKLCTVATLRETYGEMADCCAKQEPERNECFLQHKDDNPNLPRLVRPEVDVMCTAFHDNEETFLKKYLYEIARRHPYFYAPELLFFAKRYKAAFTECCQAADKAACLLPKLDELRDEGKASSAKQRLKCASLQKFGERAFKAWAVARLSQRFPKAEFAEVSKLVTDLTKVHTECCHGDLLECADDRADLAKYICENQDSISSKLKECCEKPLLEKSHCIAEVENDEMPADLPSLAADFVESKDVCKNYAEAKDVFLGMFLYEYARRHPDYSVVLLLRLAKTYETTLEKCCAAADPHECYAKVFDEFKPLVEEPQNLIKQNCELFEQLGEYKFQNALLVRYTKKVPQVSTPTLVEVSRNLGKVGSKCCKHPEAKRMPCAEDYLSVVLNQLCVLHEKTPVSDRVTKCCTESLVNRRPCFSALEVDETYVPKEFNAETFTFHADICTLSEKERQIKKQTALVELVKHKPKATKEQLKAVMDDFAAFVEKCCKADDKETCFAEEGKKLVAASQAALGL
T2 sequence (P35462 whole entry): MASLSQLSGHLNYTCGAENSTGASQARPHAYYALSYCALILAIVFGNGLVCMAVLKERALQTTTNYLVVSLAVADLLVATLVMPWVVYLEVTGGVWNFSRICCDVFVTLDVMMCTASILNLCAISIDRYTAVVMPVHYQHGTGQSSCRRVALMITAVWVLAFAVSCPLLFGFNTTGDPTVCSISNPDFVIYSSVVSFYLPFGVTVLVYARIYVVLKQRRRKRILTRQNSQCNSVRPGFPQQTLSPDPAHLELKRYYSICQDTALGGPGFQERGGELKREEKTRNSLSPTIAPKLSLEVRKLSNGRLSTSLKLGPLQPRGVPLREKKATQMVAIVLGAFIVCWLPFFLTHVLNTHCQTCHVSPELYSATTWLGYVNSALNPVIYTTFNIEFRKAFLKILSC
T1 sequence (Q61616 whole entry): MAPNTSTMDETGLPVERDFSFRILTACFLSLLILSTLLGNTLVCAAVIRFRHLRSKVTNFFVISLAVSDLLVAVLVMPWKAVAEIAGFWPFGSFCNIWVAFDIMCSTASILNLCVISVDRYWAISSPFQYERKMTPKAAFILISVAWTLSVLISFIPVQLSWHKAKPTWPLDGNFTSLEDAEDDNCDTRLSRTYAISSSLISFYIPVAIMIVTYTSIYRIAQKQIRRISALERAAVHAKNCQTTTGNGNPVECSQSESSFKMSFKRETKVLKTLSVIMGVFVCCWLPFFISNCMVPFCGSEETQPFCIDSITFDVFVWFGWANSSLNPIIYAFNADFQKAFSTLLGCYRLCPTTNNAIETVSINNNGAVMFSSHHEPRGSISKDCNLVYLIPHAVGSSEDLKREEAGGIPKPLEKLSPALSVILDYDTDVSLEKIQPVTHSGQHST

Consider `O=Cc1ccc(-c2ccccc2OCF)cc1` [Compound 3, 2′-(Fluoromethoxy)[1,1′-biphenyl]-4-carbaldehyde], for which, at mouse D1R, the “potentiation of DA effect in mouse D1R” value is on record as “concentration-dependent potentiation of DA effect”. Further, on human D3R, the “enhancement of DA Emax at human D3 receptor” value is “did not enhance DA Emax”. For the same compound, in data set [1], the “HSA binding (%)” value is more than 99%.

Consider `CS(=N)(=O)c1ccc(-c2ccccc2OCF)cc1` (stereo not shown) [Compound 26, 2-(Fluoromethoxy)-4′-(S-methanesulfonimidoyl)-1,1′-biphenyl], for which the “potentiation of DA effect in mouse D1R” value on mouse D1R was “PAM behavior was also observed”. Besides, the “enhancement of DA Emax at human D3 receptor” value on human D3R is “subtype selectivity”. The “HSA binding (%)” value in data set [1] was 79%. Further, the dissociation constant Kd in data set [1] (read-out: HSA dissociation constant Kd) was determined as 156 µM.
